Assay results taken from US4599352A, “Antineoplastic platinum (IV) complexes and compositions” (priority 1984, dated 1986).

What was measured:
[1] = test system: IP-Implanted L1210 Leukemia; assay: Dose-response against IP-implanted L1210 leukemia, IP treatment Days 1, 5 and 9, 30-day test (Table 2); type: in vivo, CD2Fl male mice; conditions: for Optimal dose (dose producing best therapeutic response): day 1, 5 and 9 schedule
Experimental: (§1) Biological properties of the compounds of the present invention were determined following the protocol described in Cancer Chemotherapy Reports, Vol. 3, No. 3, 1972 which report is incorporated herein by reference.
(§2) This experiment (A8-00005 3LE31) was conducted at the Southern Research Institute, Birmingham, Ala. under the supervision of Dr. Daniel Griswold. The protocols were the same as those published previously (Geran et al., Cancer Chemotherapy Reports 3: No. 2, 1972 [Attachment 11]). 10^5 cells were implanted intraperitoneally in CD2Fl male mice on Day 0. Drug treatments were given intraperitoneally as single injections at the doses indicated on Days 1, 5 and 9 after tumor implantation. The diluent was saline except for NSC-271674 where 5% sodium bicarbonate was used. All drugs were prepared fresh on the day of injection, and all were administered in solution. Median survival times for both control and drug-treated mice were determined and expressed as a percentage (% T/C). Body weights were determined on Day 5 and expressed as a weight difference (body weight of the drug-treated animals minus that of the control animals in grams) (T-C). The diluent control animals lived a median of 8.4 days and gained 1.9 grams by Day 5 in this experiment. All animals, including Day 30 survivors, were used in the calculation of median survival times. The log10 change in tumor burden refers to the net log change in viable tumor cell population at the end of therapy (Rx) as compared to the start of therapy; e.g., a […] means that there was a […] and a 3 log change means there was a 1000-fold increase in tumor burden at the end of therapy. The tumor burden at the start of therapy was about 6.1×10^5 cells in this experiment.

IP L1210 = assay: Activity against IP-implanted L1210 leukemia sensitive to cisplatin, 30 day test (Table 3); type: in vivo, Female CD2Fl mice
Experimental: as §1
(§3) Other known mechanisms of resistance for other classes of agents, such as gene amplification or target enzyme change or amplication, also need to be explored. The experiments summarized in Table 3 were conducted at the same time against both sublines using the same drug preparations. […] These experiments were repeated in a second laboratory as documented in Table 4. However, in these experiments the animals were held for 60 rather than 30 days to evaluate whether or not long-term survivors are produced after drug treatment in a more challenging setting.
as §2
These experiments (A8-00008 3LE31 and A8-00001 3DP31) were conducted concurrently at the Southern Research Institute, Birmingham, Ala. under the supervision of Dr. Daniel Griswold. See Table 4 for experimental details. The diluent control animals bearing L1210 leukemia lived a median of 8.6 days and gained 1.3 grams by Day 5. […] Female CD2Fl mice were used for these experiments.

IP L1210/Cisplatin = assay: Activity against IP-implanted L1210/Cisplatin leukemia resistant to cisplatin, 30 day test (Table 3); type: in vivo, Female CD2Fl mice
Experimental: as §1, §3
This experiment (A8-00005 3LE31) was conducted at the Southern Research Institute, Birmingham, Ala. under the supervision of Dr. Daniel Griswold. The protocols were the same as those published previously (Geran et al., Cancer Chemotherapy Reports 3: No. 2, 1972 [Attachment 11]). 10^5 cells were implanted intraperitoneally in CD2Fl male mice on Day 0. Drug treatments were given intraperitoneally as single injections at the doses indicated on Days 1, 5 and 9 after tumor implantation. The diluent was saline except for NSC-271674 where 5% sodium bicarbonate was used. All drugs were prepared fresh on the day of injection, and all were administered in solution. Median survival times for both control and drug-treated mice were determined and expressed as a percentage (% T/C). Body weights were determined on Day 5 and expressed as a weight difference (body weight of the drug-treated animals minus that of the control animals in grams) (T-C). The diluent control animals lived a median of 8.4 days and gained 1.9 grams by Day 5 in this experiment. All animals, including Day 30 survivors, were used in the calculation of median survival times. The log10 change in tumor burden refers to the net log change in viable tumor cell population at the end of therapy (Rx) as compared to the start of therapy; e.g., a […] means that there was a […] and a 3 log change means there was a 1000-fold increase in tumor burden at the end of therapy. The tumor burden at the start of therapy was about 6.1×10^5 cells in this experiment. […]

IP L1210 leukemia = assay: Mouse optimal (highest tolerated) dose, IP L1210 leukemia, Days 1, 5 and 9 schedule (Table 7); type: in vivo
Description: *IP L1210 leukemia, Days 1, 5 and 9 schedule. Highest tolerated dose in a
least 2 of 3 experiments (i.e,. animal weight difference (testcontrol)

## Tetrachloro-cis-1,2-cyclohexanediamine platinum (IV)
[1]; 1 mg/kg/dose IP
  30-Day Survivors/Total: 0/6
  Approx. Log10 Change in Tumor Burden at End of Rx: ~2.8 log10
  Body Weight Difference: -0.8 Grams
  Median % T/C: 128%
[1]; 2 mg/kg/dose IP
  30-Day Survivors/Total: 0/6
  Approx. Log10 Change in Tumor Burden at End of Rx: ~2.6 log10
  Body Weight Difference: -1.3 Grams
  Median % T/C: 140%
[1]; 4 mg/kg/dose IP
  30-Day Survivors/Total: 0/6
  Approx. Log10 Change in Tumor Burden at End of Rx: ~2.4 log10
  Body Weight Difference: -1.1 Grams
  Median % T/C: 152%
[1]; 8 mg/kg/dose IP
  30-Day Survivors/Total: 0/6
  Approx. Log10 Change in Tumor Burden at End of Rx: ~-0.7 log10
  Body Weight Difference: -1.8 Grams
  Median % T/C: 205%
[1]; 16 mg/kg/dose IP
  30-Day Survivors/Total: 2/6
  Approx. Log10 Change in Tumor Burden at End of Rx: ~-5.7 log10
  Body Weight Difference: -3.6 Grams
  Median % T/C: 333%
[1]; 16 mg/kg/dose IP, listed as cis
  Body Weight Difference: less than -4 Grams
[1]
  Optimal dose (dose producing best therapeutic response): 16 mg/kg/injection
IP L1210; 1 mg/kg/dose
  30 Day Survivors/Total: 0/6
  Approx. Log10 Change in Tumor Burden at End of RX: ~2.8 log10
  Median % T/C: 125%
IP L1210; 2 mg/kg/dose
  30 Day Survivors/Total: 0/6
  Approx. Log10 Change in Tumor Burden at End of RX: ~2.6 log10
  Median % T/C: 139%
IP L1210; 4 mg/kg/dose
  30 Day Survivors/Total: 0/6
  Approx. Log10 Change in Tumor Burden at End of RX: ~2.4 log10
  Median % T/C: 148%
IP L1210; 8 mg/kg/dose
  30 Day Survivors/Total: 2/6
  Approx. Log10 Change in Tumor Burden at End of RX: ~-5.9 log10
  Median % T/C: 325%
IP L1210; 16 mg/kg/dose
  30 Day Survivors/Total: 1/6
  Approx. Log10 Change in Tumor Burden at End of RX: ~-5.7 log10
  Median % T/C: 267%
IP L1210/Cisplatin; 1 mg/kg/dose
  30 Day Survivors/Total: 0/6
  Approx. Log10 Change in Tumor Burden at End of RX: ~3.0 log10
  Median % T/C: 105%
IP L1210/Cisplatin; 2 mg/kg/dose
  30 Day Survivors/Total: 0/6
  Approx. Log10 Change in Tumor Burden at End of RX: ~2.9 log10
  Median % T/C: 110%
IP L1210/Cisplatin; 4 mg/kg/dose
  30 Day Survivors/Total: 0/6
  Approx. Log10 Change in Tumor Burden at End of RX: ~2.9 log10
  Median % T/C: 111%
IP L1210/Cisplatin; 8 mg/kg/dose
  30 Day Survivors/Total: 0/6
  Approx. Log10 Change in Tumor Burden at End of RX: ~2.4 log10
  Median % T/C: 138%
IP L1210/Cisplatin; 16 mg/kg/dose
  30 Day Survivors/Total: 3/6
  Approx. Log10 Change in Tumor Burden at End of RX: ~-5.9 log10
  Median % T/C: 322%
IP L1210 leukemia
  Mouse Optimal Dose (highest tolerated dose in at least 2 of 3 experiments): 8 mg/kg

## N.N.[Cl][Pt][Cl] [Cisplatin, cis-diamminedichloroplatinum (II), reference compound]
[1]; 1.25 mg/kg/dose IP
  30-Day Survivors/Total: 0/6
  Approx. Log10 Change in Tumor Burden at End of Rx: ~2.9 log10
  Body Weight Difference: -1.0 Grams
  Median % T/C: 123%
[1]; 5 mg/kg/dose IP
  30-Day Survivors/Total: 0/6
  Approx. Log10 Change in Tumor Burden at End of Rx: ~2.4 log10
  Body Weight Difference: -1.4 Grams
  Median % T/C: 152%
[1]; 10 mg/kg/dose IP
  30-Day Survivors/Total: 0/6
  Approx. Log10 Change in Tumor Burden at End of Rx: ~1.9 log10
  Body Weight Difference: -1.3 Grams
  Median % T/C: 166%
[1]; 20 mg/kg/dose IP
  30-Day Survivors/Total: 3/6
  Approx. Log10 Change in Tumor Burden at End of Rx: ~-5.7 log10
  Body Weight Difference: -5.0 Grams
  Median % T/C: 357%
[1]; best dose
  Log reduction in tumor cell burden at the end of therapy: -5.7 log10
[1]
  Optimal dose (dose producing best therapeutic response): 20 mg/kg/injection
IP L1210; 1.25 mg/kg/dose
  30 Day Survivors/Total: 0/6
  Approx. Log10 Change in Tumor Burden at End of RX: ~3.0 log10
  Median % T/C: 116%
IP L1210; 5 mg/kg/dose
  30 Day Survivors/Total: 0/6
  Approx. Log10 Change in Tumor Burden at End of RX: ~2.2 log10
  Median % T/C: 162%
IP L1210; 10 mg/kg/dose
  30 Day Survivors/Total: 3/6
  Approx. Log10 Change in Tumor Burden at End of RX: ~-5.9 log10
  Median % T/C: 348%
IP L1210; 20 mg/kg/dose
  30 Day Survivors/Total: 0/6
  Approx. Log10 Change in Tumor Burden at End of RX: ~2.4 log10
  Median % T/C: 148%
IP L1210/Cisplatin; 1.25 mg/kg/dose
  30 Day Survivors/Total: 0/6
  Approx. Log10 Change in Tumor Burden at End of RX: ~3.0 log10
  Median % T/C: 104%
IP L1210/Cisplatin; 5 mg/kg/dose
  30 Day Survivors/Total: 0/6
  Approx. Log10 Change in Tumor Burden at End of RX: ~3.1 log10
  Median % T/C: 101%
IP L1210/Cisplatin; 10 mg/kg/dose
  30 Day Survivors/Total: 0/6
  Approx. Log10 Change in Tumor Burden at End of RX: ~2.9 log10
  Median % T/C: 108%
IP L1210/Cisplatin; 20 mg/kg/dose
  30 Day Survivors/Total: 0/6
  Median % T/C: 86%
IP L1210/Cisplatin; mouse, in vivo
  Activity against L1210/cisplatin: refractory
IP L1210 leukemia
  Mouse Optimal Dose (highest tolerated dose in at least 2 of 3 experiments): 10 mg/kg
